In patent US20190359609A1, “BICYCLIC OGA INHIBITOR COMPOUNDS” (Janssen Pharmaceutica NV, priority 2016, published 2019):
Read-outs that look alike come from different tables or passages of the source.

Experiments:
PDE2 = PDE2 (Homo sapiens, UniProt O00408); assay: PDE2 inhibitory activity (protocol as described in WO2017/076900, page 28); format: biochemical; conditions: screening concentration of 10 μM; read-out: PDE2 inhibitory activity, % effect
[1] = target: T1, recombinant human Meningioma Expressed Antigen 5 (MGEA5), also referred to as O-GlcNAcase (OGA) (Homo sapiens, UniProt O60502); assay: OGA biochemical assay: inhibition of FM-GlcNAc hydrolysis, fluorescence (protocol A 10 nM OGA, 1 h; protocol B 2 nM OGA, 6 h); conditions: for Emax: read-out: Enzymatic Emax (%); for IC50: read-out: Enzymatic hOGA, pIC50 (converted)
T1 construct: Full length OGA enzyme was purchased at OriGene (cat # TP322411); purchased OriGene TP322411
T1 sequence (O60502 1-916): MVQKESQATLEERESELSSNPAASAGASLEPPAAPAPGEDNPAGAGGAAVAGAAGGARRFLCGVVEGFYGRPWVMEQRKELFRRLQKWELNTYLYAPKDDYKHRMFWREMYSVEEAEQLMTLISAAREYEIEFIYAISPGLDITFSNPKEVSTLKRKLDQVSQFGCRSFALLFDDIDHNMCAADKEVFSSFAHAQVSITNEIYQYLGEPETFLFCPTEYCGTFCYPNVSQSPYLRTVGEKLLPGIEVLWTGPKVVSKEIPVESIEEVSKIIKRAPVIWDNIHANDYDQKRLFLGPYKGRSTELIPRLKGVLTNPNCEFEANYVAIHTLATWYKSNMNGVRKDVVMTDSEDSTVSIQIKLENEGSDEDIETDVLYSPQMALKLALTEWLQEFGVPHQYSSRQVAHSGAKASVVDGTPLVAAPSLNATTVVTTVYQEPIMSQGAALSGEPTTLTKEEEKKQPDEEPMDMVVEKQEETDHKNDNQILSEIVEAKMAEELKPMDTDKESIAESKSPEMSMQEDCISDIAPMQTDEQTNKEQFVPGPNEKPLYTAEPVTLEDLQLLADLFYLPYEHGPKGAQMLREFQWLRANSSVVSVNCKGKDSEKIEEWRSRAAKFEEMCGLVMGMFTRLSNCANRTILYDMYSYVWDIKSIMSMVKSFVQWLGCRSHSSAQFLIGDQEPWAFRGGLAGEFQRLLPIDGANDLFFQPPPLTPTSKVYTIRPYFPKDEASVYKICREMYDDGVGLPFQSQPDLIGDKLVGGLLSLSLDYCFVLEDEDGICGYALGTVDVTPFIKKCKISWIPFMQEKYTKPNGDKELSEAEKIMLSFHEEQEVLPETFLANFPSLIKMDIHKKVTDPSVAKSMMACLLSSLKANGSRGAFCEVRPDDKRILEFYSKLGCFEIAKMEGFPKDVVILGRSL
Description: The assay is based on the inhibition of the hydrolysis of fluorescein mono-B-D-N-Acetyl-Glucosamine (FM-GlcNAc) (Mariappa et al. 2015, Biochem J 470:255) by the recombinant human Meningioma Expressed Antigen 5 (MGEA5), also referred to as 0-GlcNAcase (OGA). The hydrolysis FM-GlcNAc (Marker Gene technologies, cat # M1485) results in the formation of β-D-N-glucosamineacetate and fluorescein. The fluorescence of the latter can be measured at excitation wavelength 485 nm and emission wavelength 538 nm. An increase in enzyme activity results in an increase in fluorescence signal. Full length OGA enzyme was purchased at OriGene (cat # TP322411). The enzyme was stored in 25 mM Tris.HCl, pH 7.3, 100 mM glycine, 10% glycerol at −20° C. Thiamet G and GlcNAcStatin were tested as reference compounds (Yuzwa et al. 2008 Nature Chemical Biology 4:483; Yuzwa et al. 2012 Nature Chemical Biology 8:393). The assay was performed in 200 mM Citrate/phosphate buffer supplemented with 0.005% Tween-20. 35.6 g Na2HPO4 2 H2O (Sigma, # C0759) were dissolved in 1 L water to obtain a 200 mM solution. 19.2 g citric acid (Merck, #1.06580) was dissolved in 1 L water to obtain a 100 mM solution. pH of the sodiumphosphate solution was adjusted with the citric acid solution to 7.2. The buffer to stop the reaction consists of a 500 mM Carbonate buffer, pH 11.0. 734 mg FM-GlcNAc were dissolved in 5.48 mL DMSO to obtain a 250 mM solution and was stored at −20° C. OGA was used at a 10 nM (protocol A) or 2 nM (protocol B) concentration and FM-GlcNAc at a 100 uM final concentration. Dilutions were prepared in assay buffer.
50 nl of a compound dissolved in DMSO was dispensed on Black Proxiplate™ 384 Plus Assay plates (Perkin Elmer, #6008269) and 3 μl fl-OGA enzyme mix added subsequently. Plates were pre-incubated for 60 min at room temperature and then 2 μl FM-GlcNAc substrate mix added. […] Plates were briefly centrifuged for 1 min at 1000 rpm and incubate at room temperature for 1 h (10 nM OGA, protocol A) or 6 h (2 nM OGA, protocol B). To stop the reaction 5 μl STOP buffer were added and plates centrifuge again 1 min at 1000 rpm. Fluorescence was quantified in the Thermo Scientific Fluoroskan Ascent or the PerkinElmer EnVision with excitation wavelength 485 nm and emission wavelength 538 nm.
For analysis a best-fit curve is fitted by a minimum sum of squares method. From this an IC50 value and Hill coefficient was obtained. High control (no inhibitor) and low control (saturating concentrations of standard inhibitor) were used to define the minimum and maximum values.

OGA = target: T2, OGA (Homo sapiens, UniProt O60502); assay: OGA cellular assay: ICC detection of O-GlcNAcylated proteins in HEK293 cells inducible for P301L mutant human Tau; format: cell-based; conditions: 6 hours incubation; for EC50: read-out: Cellular hOGA, pEC50 (converted)
T2 construct: endogenous in cells; host or cells: HEK293 cells inducible for P301L mutant human Tau (2N4R)
T2 sequence (O60502 1-916): T1 sequence (O60502 1-916)
Method: HEK293 cells inducible for P301L mutant human Tau (isoform 2N4R) were established at Janssen. Thiamet-G was used for both plate validation (high control) and as reference compound (reference EC50 assay validation). OGA inhibition is evaluated through the immunocytochemical (ICC) detection of O-GlcNAcylated proteins by the use of a monoclonal antibody (CTD110.6; Cell Signaling, #9875) detecting O-GlcNAcylated residues as previously described (Dorfmueller et al. 2010 Chemistry & biology, 17:1250).
Inhibition of OGA will result in an increase of 0-GlcNAcylated protein levels resulting in an increased signal in the experiment. Cell nuclei are stained with Hoechst to give a cell culture quality control and a rough estimate of immediate compounds toxicity, if any. ICC pictures are imaged with a Perkin Elmer Opera Phenix plate microscope and quantified with the provided software Perkin Elmer Harmony 4.1.
Cells were propagated in DMEM high Glucose (Sigma, #D5796) following standard procedures. 2 days before the cell assay cells are split, counted and seeded in Poly-D-Lysine (PDL) coated 96-wells (Greiner, #655946) plate at a cell density of 12,000 cells per cm^2 (4,000 cells per well) in 100 μl of Assay Medium (Low Glucose medium is used to reduce basal levels of GlcNAcylation) (Park et al. 2014 The Journal of biological chemistry 289:13519). At the day of compound test medium from assay plates was removed and replenished with 90 μl of fresh Assay Medium. 10 μl of compounds at a 10fold final concentration were added to the wells. Plates were centrifuged shortly before incubation in the cell incubator for 6 hours. DMSO concentration was set to 0.2%. Medium is discarded by applying vacuum. For staining of cells medium was removed and cells washed once with 100 μl D-PBS (Sigma, #D8537). From next step onwards unless other stated assay volume was always 50 μl and incubation was performed without agitation and at room temperature. Cells were fixed in 50 μl of a 4% paraformaldehyde (PFA, Alpha aesar, #043368) PBS solution for 15 minutes at room temperature. […] Before analysis samples were washed 2 times manually for 5 minutes in ICC base buffer.
Imaging is performed using Perkin Elmer Phenix Opera using a water 20× objective and recording 9 fields per well. Intensity readout at 488 nm is used as a measure of O-GlcNAcylation level of total proteins in wells. To assess potential toxicity of compounds nuclei were counted using the Hoechst staining. IC50-values are calculated using parametric non-linear regression model fitting. As a maximum inhibition Thiamet G at a 200 uM concentration is present on each plate. In addition, a concentration response of Thiamet G is calculated on each plate.

[2] = Enzymatic protocol A (10 nM OGA, 1 h)
[3] = Enzymatic protocol B (2 nM OGA, 6 h)

Sequence of PDE2 (O00408 whole entry): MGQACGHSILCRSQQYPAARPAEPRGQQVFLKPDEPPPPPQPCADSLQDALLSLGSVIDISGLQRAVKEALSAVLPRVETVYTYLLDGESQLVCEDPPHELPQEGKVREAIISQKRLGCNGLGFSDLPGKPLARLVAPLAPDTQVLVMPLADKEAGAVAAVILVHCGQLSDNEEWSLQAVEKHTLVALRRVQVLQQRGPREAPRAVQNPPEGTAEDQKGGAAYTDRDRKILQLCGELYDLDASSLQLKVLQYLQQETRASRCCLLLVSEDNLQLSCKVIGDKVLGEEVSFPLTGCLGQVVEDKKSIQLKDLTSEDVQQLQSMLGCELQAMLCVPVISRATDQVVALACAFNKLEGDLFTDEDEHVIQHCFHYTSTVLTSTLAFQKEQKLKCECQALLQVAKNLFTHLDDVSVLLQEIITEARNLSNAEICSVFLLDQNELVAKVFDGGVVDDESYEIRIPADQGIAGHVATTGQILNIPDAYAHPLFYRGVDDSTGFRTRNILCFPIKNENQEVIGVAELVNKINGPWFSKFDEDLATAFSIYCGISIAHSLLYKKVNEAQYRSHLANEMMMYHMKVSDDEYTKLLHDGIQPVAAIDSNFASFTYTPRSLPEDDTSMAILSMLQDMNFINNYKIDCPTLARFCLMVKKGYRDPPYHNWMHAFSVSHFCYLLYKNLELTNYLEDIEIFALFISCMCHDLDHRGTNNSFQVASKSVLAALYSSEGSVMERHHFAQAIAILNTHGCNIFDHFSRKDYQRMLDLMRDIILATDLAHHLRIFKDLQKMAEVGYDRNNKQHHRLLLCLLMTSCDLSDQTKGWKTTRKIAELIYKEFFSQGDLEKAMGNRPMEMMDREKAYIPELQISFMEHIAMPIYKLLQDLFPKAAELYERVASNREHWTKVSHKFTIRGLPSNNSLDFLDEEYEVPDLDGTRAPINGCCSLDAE

Row | SMILES | inhibition at 10 µM (PDE2) [%] | Emax [1, 2] [%] | IC50 [1, 2] [nM] | Emax (OGA) [%] | EC50 (OGA) [nM] | melting point [°C] | Emax [1, 3] [%] | IC50 [1, 3] [nM] | Enzymatic Emax (%) [1, 2] [%]
1 | CC(=O)Nc1ncc(S(=O)(=O)N2CCCC(c3cc4ncccc4[nH]3)C2)s1 (stereo not shown) [Compound 2] | 33.1 | 102 | 263 | – | – | – | – | – | –
2 | O=C(CN1CCCC(c2cc3ncccc3[nH]2)C1)N1CCCC1 (stereo not shown) [Compound 49] | – | – | – | 7.2 | > 10000 | 179.9 | 80.5 | 2630 | –

Next, values leading:

Row | inhibition at 10 µM (PDE2) [%] | Emax [1, 2] [%] | IC50 [1, 2] [nM] | Emax (OGA) [%] | EC50 (OGA) [nM] | melting point [°C] | Emax [1, 3] [%] | IC50 [1, 3] [nM] | Enzymatic Emax (%) [1, 2] [%] | SMILES
3 | – | – | 148 | 109 | 851 | 228.2 | – | – | 102 | CC(=O)Nc1ncc(CN2CCCC(c3nc4ncccc4[nH]3)C2)s1 (single isomer, unassigned) [Compound 19]
4 | – | 98 | 204 | – | – | 235 | – | – | – | CCC(=O)Nc1ncc(CN2CCCC(c3cc4ncccc4[nH]3)C2)s1 (stereo not shown) [Compound 9]
5 | – | – | 24500 | – | – | 223.94 | – | – | 55.6 | CC(=O)Nc1ncc(CN2CCCC(c3nc4ncccc4[nH]3)C2)s1 (single isomer, unassigned) [Compound 18]
